Experimental data as given in PubChem BioAssay AID1963853 (Molecular Pharmacology Branch, DTP, NCI, 2024).

Test system: 266295-075-R-J1-PDC spheroid viability
Assay: Anticancer human tumor 266295-075-R-J1-PDC patient-derived head and neck squamous carcinoma cell line growth inhibition [POLQ]
Details: spheroids with HUVEC and MSC; for IC50: curve of first compound; for viability, T/C: stronger effect = lower value
Procedure, shortened: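 PDC + HUVEC + MSC complex spheroids; POLQ inhibitors ± partner drugs; top conc. at/near clinical Cmax, else 10 microM (SN-38 1 microM), half-log dilutions; 37 degrees C, 5% CO2.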

[1] = second compound 0.0316 µM, first compound 0.0316 µM
[2] = second compound 0.0316 µM, first compound 0.1 µM
[3] = second compound 0.0316 µM, first compound 0.316 µM
[4] = second compound 0.0316 µM, first compound 1 µM
[5] = second compound 0.0316 µM, first compound 3.16 µM
[6] = second compound 0.0316 µM, first compound 10 µM
[7] = second compound 0.1 µM, first compound 0.0316 µM
[8] = second compound 0.1 µM, first compound 0.1 µM
[9] = second compound 0.1 µM, first compound 0.316 µM
[10] = second compound 0.1 µM, first compound 1 µM
[11] = second compound 0.1 µM, first compound 3.16 µM
[12] = second compound 0.1 µM, first compound 10 µM
[13] = second compound 0.316 µM, first compound 0.0316 µM
[14] = second compound 0.316 µM, first compound 0.1 µM
[15] = second compound 0.316 µM, first compound 0.316 µM
[16] = second compound 0.316 µM, first compound 1 µM
[17] = second compound 0.316 µM, first compound 3.16 µM
[18] = second compound 0.316 µM, first compound 10 µM
[19] = second compound 1 µM, first compound 0.0316 µM
[20] = second compound 1 µM, first compound 0.1 µM
[21] = second compound 1 µM, first compound 0.316 µM
[22] = second compound 1 µM, first compound 1 µM
[23] = second compound 1 µM, first compound 3.16 µM
[24] = second compound 1 µM, first compound 10 µM
[25] = second compound 3.16 µM, first compound 0.0316 µM
[26] = second compound 3.16 µM, first compound 0.1 µM
[27] = second compound 3.16 µM, first compound 0.316 µM
[28] = second compound 3.16 µM, first compound 1 µM
[29] = second compound 3.16 µM, first compound 3.16 µM
[30] = second compound 3.16 µM, first compound 10 µM
[31] = second compound 10 µM, first compound 0.0316 µM
[32] = second compound 10 µM, first compound 0.1 µM
[33] = second compound 10 µM, first compound 0.316 µM
[34] = second compound 10 µM, first compound 1 µM
[35] = second compound 10 µM, first compound 3.16 µM
[36] = second compound 10 µM, first compound 10 µM
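Further: spheroids exposed to compounds for seven days before readout.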

CCCS(=O)(=O)Nc1ccc(F)c(C(=O)c2c[nH]c3ncc(-c4ccc(Cl)cc4)cc23)c1F + COC1C(OC(N)=O)C(O)C(Oc2ccc3c(O)c(NC(=O)c4ccc(O)c(CC=C(C)C)c4)c(=O)oc3c2C)OC1(C)C
IC50 (second compound 0.0316 µM): > 10 µM | IC50 (second compound 0.1 µM): > 10 µM | IC50 (second compound 0.316 µM): > 10 µM | IC50 (second compound 1 µM): > 10 µM | IC50 (second compound 3.16 µM): > 10 µM | IC50 (second compound 10 µM): > 10 µM | viability, T/C [1]: 99% | viability, T/C [2]: 116% | viability, T/C [3]: 107% | viability, T/C [4]: 115% | viability, T/C [5]: 169% | viability, T/C [6]: 172% | viability, T/C [7]: 101% | viability, T/C [8]: 121% | viability, T/C [9]: 105% | viability, T/C [10]: 112% | viability, T/C [11]: 157% | viability, T/C [12]: 222% | viability, T/C [13]: 116% | viability, T/C [14]: 102% | viability, T/C [15]: 102% | viability, T/C [16]: 128% | viability, T/C [17]: 155% | viability, T/C [18]: 195% | viability, T/C [19]: 117% | viability, T/C [20]: 102% | viability, T/C [21]: 102% | viability, T/C [22]: 113% | viability, T/C [23]: 143% | viability, T/C [24]: 172% | viability, T/C [25]: 98.7% | viability, T/C [26]: 87.5% | viability, T/C [27]: 140% | viability, T/C [28]: 130% | viability, T/C [29]: 139% | viability, T/C [30]: 178% | viability, T/C [31]: 112% | viability, T/C [32]: 95.5% | viability, T/C [33]: 111% | viability, T/C [34]: 153% | viability, T/C [35]: 144% | viability, T/C [36]: 166%

O=C(Nc1ccc(O)c(NS(=O)(=O)c2ccc(F)cc2)c1)c1ccc(-c2ccccc2)cc1 + COC1C(OC(N)=O)C(O)C(Oc2ccc3c(O)c(NC(=O)c4ccc(O)c(CC=C(C)C)c4)c(=O)oc3c2C)OC1(C)C
IC50 (second compound 0.0316 µM): > 10 µM | IC50 (second compound 0.1 µM): > 10 µM | IC50 (second compound 0.316 µM): > 10 µM | IC50 (second compound 1 µM): > 10 µM | IC50 (second compound 3.16 µM): > 10 µM | IC50 (second compound 10 µM): > 10 µM | viability, T/C [1]: 93.7% | viability, T/C [2]: 96.6% | viability, T/C [3]: 110% | viability, T/C [4]: 110% | viability, T/C [5]: 128% | viability, T/C [6]: 113% | viability, T/C [7]: 112% | viability, T/C [8]: 87.2% | viability, T/C [9]: 109% | viability, T/C [10]: 112% | viability, T/C [11]: 145% | viability, T/C [12]: 107% | viability, T/C [13]: 101% | viability, T/C [14]: 102% | viability, T/C [15]: 116% | viability, T/C [16]: 104% | viability, T/C [17]: 120% | viability, T/C [18]: 103% | viability, T/C [19]: 111% | viability, T/C [20]: 105% | viability, T/C [21]: 99.7% | viability, T/C [22]: 112% | viability, T/C [23]: 130% | viability, T/C [24]: 112% | viability, T/C [25]: 115% | viability, T/C [26]: 96.6% | viability, T/C [27]: 101% | viability, T/C [28]: 119% | viability, T/C [29]: 136% | viability, T/C [30]: 104% | viability, T/C [31]: 115% | viability, T/C [32]: 94.8% | viability, T/C [33]: 110% | viability, T/C [34]: 100% | viability, T/C [35]: 130% | viability, T/C [36]: 103%

CCc1cc2c(N3CCc4c(cc(Cn5ccnc5)cc4-c4cn(C)nc4C(F)(F)F)C3=O)cc(C)nc2c(OC)n1 + Nc1ccc(C#CCN(C(=O)Cc2ncc(C(F)(F)F)cc2C(F)(F)F)c2ccc(F)cc2)nn1
IC50 (second compound 0.0316 µM): > 10 µM | IC50 (second compound 0.1 µM): > 10 µM | IC50 (second compound 0.316 µM): > 10 µM | IC50 (second compound 1 µM): > 10 µM | IC50 (second compound 3.16 µM): > 10 µM | IC50 (second compound 10 µM): > 10 µM | viability, T/C [1]: 103% | viability, T/C [2]: 96.2% | viability, T/C [3]: 127% | viability, T/C [4]: 141% | viability, T/C [5]: 122% | viability, T/C [6]: 149% | viability, T/C [7]: 112% | viability, T/C [8]: 113% | viability, T/C [9]: 105% | viability, T/C [10]: 141% | viability, T/C [11]: 163% | viability, T/C [12]: 137% | viability, T/C [13]: 102% | viability, T/C [14]: 105% | viability, T/C [15]: 91% | viability, T/C [16]: 144% | viability, T/C [17]: 129% | viability, T/C [18]: 152% | viability, T/C [19]: 106% | viability, T/C [20]: 94.2% | viability, T/C [21]: 96.7% | viability, T/C [22]: 136% | viability, T/C [23]: 123% | viability, T/C [24]: 133% | viability, T/C [25]: 95.3% | viability, T/C [26]: 109% | viability, T/C [27]: 130% | viability, T/C [28]: 126% | viability, T/C [29]: 118% | viability, T/C [30]: 120% | viability, T/C [31]: 106% | viability, T/C [32]: 93.9% | viability, T/C [33]: 106% | viability, T/C [34]: 115% | viability, T/C [35]: 127% | viability, T/C [36]: 139%
